{"source": "patent US20230338328A1", "about": "“KOJIC ACID DERIVATIVE AS SELECTIVE INHIBITOR OF MITOSIS IN COLORECTAL AND GLIOBLASTOMA CANCER CELLS” (UNIVERSITA' DEGLI STUDI DI CAGLIARI, priority 2020, published 2023)", "key": {"[1]": {"system": "embryonic kidney cells (293T cells)", "assay": "Mitosis block / morphology of treated cell cultures, 293T", "assay_type": "cell-based, human", "details": "for morphological changes characteristic of block in mitosis (M phase arrest): 293T normal cells, FIG. 1: L1 0.74 mM, Colcemid 5.41 mM", "from_the_text": "(§1) The commercial embryonic cell line of the human kidney 293T (Banca Biologica and Cell Factory—IRCCS AOU San Martino—IST Genova, catalog code ICLC HTL03003), that of murine macrophages J774 and RAW (ICLC ATL98011 and ATL02001), that of Glioblastoma del human brain T98G (ATCC® CRL-1690™) and that of human epithelial adenocarcinoma Caco-2 (ICL HTL97023), were provided by the National Institute for Research on Cancer c/o CBA (ICLC, Genoa). A minimal essential cell culture medium, MEM (EBSS), with 10% fetal bovine serum (FBS), 100 units per mL penicillin, […] streptomycin, 2 mM glutamine and 1% not essential amino acids was used. To reach the experimental conditions, the confluent cells were isolated using trypsin/EDTA. The cells of the different cell lines (2-3×10^4 cells per cm^2) were seeded in 35 mm cell discs and then incubated at 37° C. in 5% CO2. After 24 hours of growth in complete culture medium, the cells were cultured according to the different experimental conditions foreseen by the project."}, "[2]": {"system": "T98G (human glioblastoma) cells", "assay": "Mitosis block / morphology of treated cell cultures, T98G", "assay_type": "cell-based", "details": "for morphological changes characteristic of block in mitosis (M phase arrest): T98G, 24 hours of culture, FIG. 1: L1 0.74 mM, Colcemid 5.41 mM; for antiproliferative activity (through the inhibition of mitosis): T98G tumor cells", "from_the_text": "as §1"}, "RAW macrophages": {"system": "RAW macrophages", "assay": "Mitosis block / morphology of treated cell cultures, RAW", "assay_type": "cell-based, murine", "details": "RAW normal cells; FIG. 1: L1 0.74 mM, Colcemid 5.41 mM", "from_the_text": "as §1"}, "[3]": {"system": "Caco2 (colon adenocarcinoma) cells", "assay": "Mitosis block / morphology of treated cell cultures, CaCo2", "details": "for morphological changes characteristic of block in mitosis (M phase arrest): CaCo2, 24 hours of culture, FIG. 1: L1 0.74 mM, Colcemid 5.41 mM; for antiproliferative activity (through the inhibition of mitosis): CaCo2 tumor cells", "from_the_text": "as §1"}, "[4]": {"system": "BAX, BCL2, OH-1, PRDX gene expression in 293T cells", "details": "24 hours, L1 0.74 mM (FIG. 6)", "method": "(§2) Coding for a protein that may play a role in the control of cell proliferation and in tumor development and progression.\n(§3) The cells, after treatment, were immediately frozen and stored at −80° C. until RNA extraction. The RNA was extracted with the NorDiag ARROW RNA Kit using the company's automated tool. Actin was used as a reference gene. Real-time reverse transcriptase PCR was performed using the Roche Light Cycler System and the SYBR Green I Amplification Kit (Roche Diagnostics). The primers used for the beta actin control gene are as follows: b-actF=5′-[…]-3′, b-actR=5′-[…]-3′, e (Gen-Bank n. NM_001101). While the following oligo nucleotides were used for the genes under consideration:\n(§4) The final reaction volume of 20 μl contained: a final concentration of 3 mM MgCl2, […] of each primer and 2 μl of RNA extract. The real time reaction program includes: an initial reverse transcription at 55° C. for 10 minutes, a denaturation cycle at 95° C. for 30 seconds followed by 35 cycles at 95° for 5 seconds, 53° C. for 10 seconds and 72° C. for 12 seconds, the fluorescence reading was performed in the 72° C. phase\n(§5) The relative gene expression was analyzed using the 2-AACT method [KJ Livak and TD Schmittgen, Analysis of relative gene expression data by Quantitative real-time PCR and 2-AACT method, methods, 2001, 25, 402-408]. Three distinct experimental replicates were performed for each analysis and the quantitative data were expressed as mean. The experiment was repeated if the dispersion of the values of the threshold cycles, compared to the mean, was too high. A standard deviation for each replicate equal to ±1 cut-off cycle was accepted."}, "[5]": {"system": "BAX, BCL2, OH-1, PRDX gene expression in CaCo2 cells", "details": "24 hours, L1 0.74 mM (FIG. 6)", "method": "as §2, §3, §4, §5"}, "macrophages (J774 cells)": {"system": "macrophages (J774 cells)", "from_the_text": "as §1"}, "CaCo2 cells": {"system": "CaCo2 cells", "method": "A possible cytotoxic effect (ID50) of the L1 molecule was evaluated in CaCo2 cells by viable staining with trypan blue under different experimental conditions. Cell number (FIG. 3) and viability (FIG. 4) were assessed using the LunaFL cell counter (www.logosbio.com) or by direct observation under the light microscope. Briefly, the cell samples mixed and diluted 1:1 with a 0.2% Trypan Blue solution were counted, after 1-3 minutes, in the counting chamber slide present in the analyzer of the Luna automatic system. […] To obtain an accurate measurement of cell viability, the cell count was repeated at least three times in at least three experiments under the same experimental conditions. The observation under the optical microscope (FIG. 5) was made by adding the Trypan Blue solution to the cells to be observed for a few minutes. The percentage of live cells (trypan blue negative) compared to dead ones (trypan blue positive) in each experimental culture condition was then calculated."}, "[6]": {"system": "Caco-2 human epithelial adenocarcinoma cells", "method": "Treated and untreated control samples of Caco-2 human epithelial adenocarcinoma cells were fixed for 2 hours in 1% paraformaldehyde (para) and 1.25% glutaraldehyde solution in 0.1 M, pH 7.4 sodium cacodylate buffer. After rinsing in the same buffer, the samples were post-fixed in 1% osmium tetroxide for 1 hour and stained in 0.25% uranyl acetate overnight at 4° C.\nThe cell cultures were dehydrated in increasing scale of ethanol and xylene, subsequently, to proceed with the embedding in Embed 812 resin, the samples were transferred in inclusion flat molds in an oven at 60° C. for the 24 hours necessary for the polymerization of the resin. From the resulting blocks, 1 μm thick sections were obtained and then stained with toluidine blue for preliminary analysis by light microscopy. Finally, thin sections of 60-90 nm (ultramicrotome 8800 LKB), contrasted with […] and bismuth subnitrate, were observed and photographed with a transmission electron microscope (model JEOL 1400 plus, Tokyo, Japan) operating at 80 kV."}, "[7]": {"details": "Caco2, treatment continued for up to 72 hours"}}, "note": "“Also recorded” adds a separate entry of the source."}
{"smiles": "CN[C@H]1CCc2cc(OC)c(OC)c(OC)c2-c2ccc(OC)c(=O)cc21", "note": "[Colcemid, desacetylmethylcolchicine, reference compound]", "values": [{"measurement": "morphological changes characteristic of block in mitosis (M phase arrest)", "setting": "[1]", "result": "all cell lines respond"}, {"measurement": "morphological changes characteristic of block in mitosis (M phase arrest)", "setting": "[2]", "result": "all cell lines respond"}, {"measurement": "morphological changes characteristic of block in mitosis (M phase arrest)", "setting": "[2]; listed as colcemide", "result": "all cell lines studied showed the morphological changes characteristic of blocked cells in mitosis"}, {"measurement": "morphological changes characteristic of block in mitosis (M phase arrest)", "setting": "RAW macrophages", "result": "all cell lines respond"}, {"measurement": "morphological changes characteristic of block in mitosis (M phase arrest)", "setting": "[3]", "result": "all cell lines respond"}, {"measurement": "morphological changes characteristic of block in mitosis (M phase arrest)", "setting": "[3]; listed as colcemide", "result": "all cell lines studied showed the morphological changes characteristic of blocked cells in mitosis"}]}
{"smiles": "O=c1cc(CNCCCCNCc2cc(=O)c(O)co2)occ1O", "note": "[L3, 2,2′-[butane-1,4-diylbis (iminomethanediyl)]bis(5-hydroxy-4H-pyran-4-one)]", "values": [{"measurement": "antiproliferative activity (through the inhibition of mitosis)", "setting": "[2]", "result": "not those (L2, L3 and L4) showed antiproliferative activity"}, {"measurement": "antiproliferative activity (through the inhibition of mitosis)", "setting": "[3]", "result": "not those (L2, L3 and L4) showed antiproliferative activity"}]}
{"smiles": "O=c1cc(CNCCN(CCNCc2cc(=O)c(O)co2)CCNCc2cc(=O)c(O)co2)occ1O", "note": "[L4, 6,6′,6″-(((nitrilotris(ethane-2,1-diyl))tris(azanediyl))tris(methylene))tri s(3-hydroxy-4H-pyran-4-one)]", "values": [{"measurement": "antiproliferative activity (through the inhibition of mitosis)", "setting": "[2]", "result": "not those (L2, L3 and L4) showed antiproliferative activity"}, {"measurement": "antiproliferative activity (through the inhibition of mitosis)", "setting": "[3]", "result": "not those (L2, L3 and L4) showed antiproliferative activity"}]}
{"smiles": "O=c1cc(CNCCCNCc2cc(=O)c(O)co2)occ1O", "note": "[L2, 2,2′-[propane-1,3-diylbis (iminomethanediyl)]bis(5-hydroxy-4H-pyran-4-one)]", "values": [{"measurement": "antiproliferative activity (through the inhibition of mitosis)", "setting": "[2]", "result": "not those (L2, L3 and L4) showed antiproliferative activity"}, {"measurement": "antiproliferative activity (through the inhibition of mitosis)", "setting": "[3]", "result": "not those (L2, L3 and L4) showed antiproliferative activity"}]}
{"smiles": "O=c1cc(CNCCNCc2cc(=O)c(O)co2)occ1O", "note": "[L1, 2,2′-ethane-1,2-diylbis (iminomethanediyl)This(5-hydroxy-4H-pyran-4-one)]", "values": [{"measurement": "BAX gene expression (mRNA)", "setting": "[4]", "result": "increased expression"}, {"measurement": "BCL2 gene expression (mRNA)", "setting": "[4]", "result": "increased expression"}, {"measurement": "OH-1 gene expression (mRNA)", "setting": "[4]", "result": "increased expression"}, {"measurement": "PRDX gene expression (mRNA)", "setting": "[4]", "result": "completely inhibiting the expression"}, {"measurement": "BAX gene expression (mRNA)", "setting": "[5]", "result": "significantly reduces the expression"}, {"measurement": "BCL2 gene expression (mRNA)", "setting": "[5]", "result": "significantly reduces the expression"}, {"measurement": "OH-1 gene expression (mRNA)", "setting": "[5]", "result": "significantly reduces the expression"}, {"measurement": "PRDX gene expression (mRNA)", "setting": "[5]", "result": "significantly reduces the expression"}, {"measurement": "morphological changes characteristic of block in mitosis (M phase arrest)", "setting": "[1]", "result": "apparently normal"}, {"measurement": "effect in non-tumor cell line", "setting": "[1]; embryonic kidney cells (293 cells)", "result": "no effect"}, {"measurement": "effect in non-tumor cell line", "setting": "macrophages (J774 cells)", "result": "no effect"}, {"measurement": "viability (Trypan Blue, LunaFL)", "setting": "CaCo2 cells; L1 0.74 mM (FIG. 4)", "result": "comparable to that of the respective control"}, {"measurement": "number of cells after repeated treatments", "setting": "CaCo2 cells; repeated treatments with L1", "result": "further reduction in the number of cells"}, {"measurement": "number of cells compared to those not treated (LunaFL count)", "setting": "CaCo2 cells; treated for 24 hours, L1 0.74 mM (FIG. 3)", "result": "clear reduction in the number of CaCo2 cells"}, {"measurement": "antiproliferative activity (through the inhibition of mitosis)", "setting": "[2]", "result": "showed antiproliferative activity"}, {"measurement": "morphological changes characteristic of block in mitosis (M phase arrest)", "setting": "[2]", "result": "showed morphological changes characteristic of mitotic-blocked cells; also recorded: arrest in M phase similar to that induced by Colcemid"}, {"measurement": "morphological changes characteristic of block in mitosis (M phase arrest)", "setting": "RAW macrophages", "result": "apparently normal"}, {"measurement": "morphological changes characteristic of block in mitosis (M phase arrest)", "setting": "[3]", "result": "showed morphological changes characteristic of mitotic-blocked cells; also recorded: arrest in M phase similar to that induced by Colcemid"}, {"measurement": "antiproliferative activity (through the inhibition of mitosis)", "setting": "[3]", "result": "showed antiproliferative activity"}, {"measurement": "concentration at which all the cells have a modified morphology", "setting": "[3]; Caco2", "result": 2.22, "unit": "mM"}, {"measurement": "treatment time after which half of the Caco2 cells were blocked in mitosis", "setting": "[3]; Caco2", "result": 4.5, "unit": "h"}, {"measurement": "treatment time after which the block of all treated cells was achieved", "setting": "[3]; Caco2", "result": 24, "unit": "h"}, {"measurement": "minimum concentration able to induce evident morphological changes", "setting": "[3]; Caco2, after 24 hours of treatment", "result": 0.069, "unit": "mM"}, {"measurement": "reduction in the number of cells versus control sample (on average)", "setting": "[3]; Caco2, control = same cell line cultured without L1", "result": 4, "unit": "times lower"}, {"measurement": "cell fate on continued treatment", "setting": "[3]; [7]", "result": "begin to die from apoptosis"}, {"measurement": "reversibility of mitosis inhibition", "setting": "[3]; [7]", "result": "irreversible"}, {"measurement": "reversibility of mitosis inhibition", "setting": "[3]; Caco2, treatment stopped after 24 hours, medium replaced", "result": "reversible"}, {"measurement": "effect on cell division by ultrastructural analysis (SEM and TEM)", "setting": "[6]; Caco2, L1 0.74 mM (FIG. 2)", "result": "acts specifically on the cell division (mitosis) process"}, {"measurement": "nuclear fragmentation (microscopy)", "setting": "[6]; Caco-2, L1 0.74 mM (FIG. 2A)", "result": "occasionally, cells showing fragmentation of their nuclei have been observed"}, {"measurement": "cellular architecture during the interphase (TEM)", "setting": "[6]; Caco-2, L1 0.74 mM (FIG. 2B)", "result": "does not appear to affect the cellular architecture of most cells"}]}
